Assay results from US8609086B2, “Preparation created from an in vitro culture of dedifferentiated, non-elicited cells of the Argania tree, use thereof for treating skin ageing, inflammation and scarring, and production thereof” (Pierre Fabre Dermo-Cosmetique, priority 2010, dated 2013).

Assay: Anti-oxidizing activity by chemiluminescence (ACL kit), trolox equivalent
Type: biochemical
Settings: anti-oxidizing power in trolox equivalent, trapping of superoxide anions
Description: This method generates free radicals (superoxide radical O2^o−) by a photochemical signal. The intensity of oxidation is 1000 times greater than that obtained under normal conditions. Detection is done by chemiluminescence and is used to evaluate lipo or hydrosoluble anti-oxidizing extracts or molecules. The results are expressed as an equivalent quantity of vitamin C or Trolox (6-Hydroxy-2,5,7,8-tetramethylchroman-2-carboxylic acid). The sensitivity is of the order of one nanomole.
The analysis of the results depends on two criteria, namely the shape of the curve (integration) and the numerical value given by the software in nanomoles. (Igor Popov and Gudrun Lewin. Methods in enzymology vol 300. 437-456; Maibach I Howard and coll. Journal of Cosmetic Dermatology Vol 7(2) 96-100 (2008)).
The results will be expressed in μg of sample necessary to obtain an activity equivalent to the activity detected for 1 μg of standard (=trolox). (ACL Kit).
The anti-oxidizing activity studied in this test represents the ability to specifically trap superoxide anions by chemiluminescence.

Row | SMILES | ACL μg of sample for 1 μg of Trolox
1 | COC1=C(OC)C(=O)C(C/C=C(\C)CC/C=C(\C)CC/C=C(\C)CC/C=C(\C)CC/C=C(\C)CC/C=C(\C)CC/C=C(\C)CC/C=C(\C)CC/C=C(\C)CCC=C(C)C)=C(C)C1=O [Coenzyme 10] | 272 μg of sample for 1 μg of Trolox
2 | Cc1c(C)c2c(c(C)c1O)CCC(C)(C(=O)O)O2 (centres unmarked) [Trolox, 6-Hydroxy-2,5,7,8-tetramethylchroman-2-carboxylic acid] | 1 μg of sample for 1 μg of Trolox
